Reference: US20160108406A1, “METHOD OF REGULATING CFTR EXPRESSION AND PROCESSING” (UNIVERSITY OF IOWA RESEARCH FOUNDATION, priority 2014, published 2016)

Assays:
ΔF508-CFTR [1] = target: T1, ΔF508-CFTR (Homo sapiens, UniProt P13569, DEL508-508); test: CFTR ubiquitination measurement (anti-HA IP, anti-ubiquitin blot); type: cell-based; conditions: treatment alone; HeLa-ΔF508-CFTR-HA cells; 72 hrs; MG-132 10 μM last hour; relative to siScr
T1 construct: Here we studied native CFTR, SYVN1 and AMFR gene products in a relevant CF airway epithelial cell line; endogenous in cells; host or cells: CFBE41o- cells (also as polarized ALI cultures)
T1 sequence (P13569 with tags, fused parts or gaps DEL508-508): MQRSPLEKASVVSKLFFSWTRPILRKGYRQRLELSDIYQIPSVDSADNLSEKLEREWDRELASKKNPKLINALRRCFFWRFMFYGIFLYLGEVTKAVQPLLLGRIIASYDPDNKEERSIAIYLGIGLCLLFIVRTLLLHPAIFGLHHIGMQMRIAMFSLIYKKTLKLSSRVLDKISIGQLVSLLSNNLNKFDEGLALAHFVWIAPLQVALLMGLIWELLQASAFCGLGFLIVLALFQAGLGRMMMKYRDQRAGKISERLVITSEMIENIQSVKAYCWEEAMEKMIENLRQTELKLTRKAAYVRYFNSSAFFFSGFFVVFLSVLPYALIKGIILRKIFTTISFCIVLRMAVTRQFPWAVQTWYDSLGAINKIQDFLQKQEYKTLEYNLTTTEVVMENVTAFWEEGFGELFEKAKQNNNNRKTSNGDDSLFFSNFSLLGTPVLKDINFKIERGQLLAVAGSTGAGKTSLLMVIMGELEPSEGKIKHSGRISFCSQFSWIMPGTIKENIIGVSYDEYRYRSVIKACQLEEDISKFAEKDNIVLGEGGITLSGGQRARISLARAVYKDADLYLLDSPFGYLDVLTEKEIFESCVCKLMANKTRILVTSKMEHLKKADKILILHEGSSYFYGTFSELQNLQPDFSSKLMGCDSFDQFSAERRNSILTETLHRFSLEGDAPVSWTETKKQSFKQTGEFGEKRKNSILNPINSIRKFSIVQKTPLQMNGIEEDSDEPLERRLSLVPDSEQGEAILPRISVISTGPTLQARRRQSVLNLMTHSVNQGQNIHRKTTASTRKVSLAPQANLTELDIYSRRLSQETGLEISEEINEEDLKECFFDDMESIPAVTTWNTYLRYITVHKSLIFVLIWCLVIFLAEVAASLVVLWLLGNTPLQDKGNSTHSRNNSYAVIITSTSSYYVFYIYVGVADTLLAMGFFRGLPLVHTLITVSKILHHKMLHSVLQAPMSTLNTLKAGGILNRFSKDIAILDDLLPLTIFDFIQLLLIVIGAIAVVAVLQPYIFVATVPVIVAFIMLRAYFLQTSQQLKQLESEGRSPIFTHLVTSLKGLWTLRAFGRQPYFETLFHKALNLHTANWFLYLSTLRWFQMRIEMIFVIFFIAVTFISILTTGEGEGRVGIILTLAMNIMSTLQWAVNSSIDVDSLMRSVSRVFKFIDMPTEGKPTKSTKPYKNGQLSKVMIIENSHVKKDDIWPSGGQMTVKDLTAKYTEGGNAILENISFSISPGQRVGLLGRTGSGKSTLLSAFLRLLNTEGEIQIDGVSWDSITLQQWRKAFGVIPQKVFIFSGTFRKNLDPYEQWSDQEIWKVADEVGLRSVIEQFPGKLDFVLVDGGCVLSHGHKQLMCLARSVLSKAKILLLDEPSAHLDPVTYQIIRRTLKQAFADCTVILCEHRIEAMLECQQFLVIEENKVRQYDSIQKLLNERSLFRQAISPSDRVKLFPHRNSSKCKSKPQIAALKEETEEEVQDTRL
Description: Cells were treated with 10 μM MG-132 in the last 1-hour of incubation, and then lysed in lysis buffer (1% Triton, 25 mM Tris pH 7.4, 150 mM NaCl, protease inhibitors (cOmplete™, mini, EDTA-free, Roche), 5 mM N-ethylmaleimide (NEM) and 20 μM MG-132) for 30 min at 4° C. The lysates were centrifuged at 14,000 rpm for 20 min at 4° C., and the supernatant quantified by BCA Protein Assay kit (Pierce). CFTR was precipitated with the anti-HA antibody. The immunoprecipitates were analyzed by immunoblotting with anti-Ub and anti-HA antibodies. CFTR ubiquitination level with molecular masses >180 kDa was measured by densitometry and normalized for the CFTR level in the precipitate.
Immunoprecipitation (IP) experiments were performed in HeLa cells stably expressing ΔF508-CFTR-HA. To IP ΔF508-CFTR, cells were lysed (as described above), and supernatant (20-50 μg of protein) was incubated with either anti-HA (to IP CFTR) or anti-AMFR for 1 h at 4° C., followed by incubation with protein G-agarose (Invitrogen) for 1 h at 4° C. Immunoprecipitates were washed 4 times with lysis buffer and eluted in 6× sample-SDS buffer. Samples were analyzed by immunoblotting as described above.

ΔF508-CFTR [2] = conditions: primary CF airway epithelia; reference 18; cited from earlier work

Row | Molecule | ΔF508-CFTR ubiquitination (ΔF508-CFTR [1]) | ΔF508-CFTR expression and Cl− transport (ΔF508-CFTR [2])
1 | O=C(Nc1ncc(C(c2ccccc2Cl)N2CCC(O)C2)s1)C1(c2ccc3c(c2)OCO3)CC1 (centres unmarked) [C18, 1-(benzo[d][1,3]dioxol-5-yl)-N-(5-((2-chlorophenyl)(3-hydroxypyrrolidin-1-yl)methyl)thiazol-2-yl)cyclopropanecarboxamide] | little impact on ΔF508-CFTR ubiquitination levels | –
2 | miR-138 mimic: synthetic nucleic acid with miR-138-like activity, sense SEQ ID NO: 4, antisense SEQ ID NO: 5 | – | concomitantly increased ΔF508-CFTR expression and Cl^− transport
